Results published in patent US11559512B2, “Composition for prevention, alleviation, and/or treatment of heat illness” (priority 2017, dated 2023).

Columns and labels:
[1] = system: IL-6; assay: IL-6 concentration in supernatant of lymphocytes under heat stress load (ELISA); format: cell-based, human
Procedure: 10 mL of human peripheral blood was collected and anti-coagulated with heparin, and 10 mL of PBS(−) was added thereto and stirred. 15 mL of Lymphocyte Separation Medium 1077 (PromoCell GmbH) was layered thereon so as not to mix blood thereinto, followed by blood separation at 1600 rpm for 30 minutes in a centrifuge. The mononuclear cell layer thus separated was collected into a dropper, added to 20 mL of a culture medium, and centrifuged at 1500 rpm for 5 minutes in a centrifuge. The supernatant was removed, and then, 20 mL of a culture medium was added to the cells and stirred. The cells were centrifuged again at 1500 rpm for 5 minutes in a centrifuge. The supernatant was removed, and then, 10 mL of a culture medium was added to the cells and stirred. The whole amount was added to a 10-cm dish and incubated at 37° C. for 1 hour in a 5% CO2 environment. […] The solution with the adjusted lymphocyte density was inoculated at 4 mL/well to 2 wells of each 6-well plate. […] Then, the supernatant was recovered into a 1.5 mL Eppendorf tube and centrifuged at 8000 rpm for 5 minutes in a centrifuge. The supernatant was recovered into a fresh 1.5-mL Eppendorf tube and preserved at −20° C.
Human IL-6 of an ELISA kit was used in IL-6 measurement. 5× Coating Buffer A included in the assay kit was diluted 5-fold with distilled water. Capture Antibody diluted 200-fold with the Coating Buffer was added at 100 μL/well to a 96-well plate, and the plate was left standing overnight at 4° C.
The antibody solution was removed, and each well was washed four times. A very small amount of the reaction solution remaining in the plate was completely removed with Kim Towel. Then, ELISA Assay Diluent (BioLegend, Inc.) diluted 5-fold with distilled water was added at 200 μL/well, and the plate was left standing overnight at 4° C.
The solution was removed, and each well was washed four times. A very small amount of the reaction solution remaining in the plate was completely removed with Kim Towel. IL-6 standard protein was diluted with Assay Diluent to prepare dilution series of the IL-6 standard protein. The dilution series of the IL-6 standard protein and the 40° C. culture supernatant of the lymphocytes were added at 100 μL/well, and the plate was left standing at room temperature for 2 hours. The solution was removed, and each well was washed four times. A very small amount of the reaction solution remaining in the plate was completely removed with Kim Towel. Detection Antibody diluted 200-fold with Assay Diluent was added at 100 μL/well, and the plate was left standing at room temperature for 1 hour. […] The reaction was terminated by the addition of 2 N H2SO4 at 100 μL/well, followed by the absorbance measurement of the reaction solution in a plate reader at 450 nm.

[2] = system: CCL-2; assay: CCL-2 concentration in supernatant of lymphocytes under heat stress load (ELISA); format: cell-based, human
Procedure: 10 mL of human peripheral blood was collected and anti-coagulated with heparin, and 10 mL of PBS(−) was added thereto and stirred. 15 mL of Lymphocyte Separation Medium 1077 (PromoCell GmbH) was layered thereon so as not to mix blood thereinto, followed by blood separation at 1600 rpm for 30 minutes in a centrifuge. The mononuclear cell layer thus separated was collected into a dropper, added to 20 mL of a culture medium, and centrifuged at 1500 rpm for 5 minutes in a centrifuge. The supernatant was removed, and then, 20 mL of a culture solution was added to the cells and stirred. The cells were centrifuged again at 1500 rpm for 5 minutes in a centrifuge. The supernatant was removed, and then, 10 mL of a culture medium was added to the cells and stirred. The whole amount was added to a 10-cm dish and incubated at 37° C. for 1 hour in a 5% CO2 environment. […] The solution with the adjusted lymphocyte density was inoculated at 4 mL/well to 2 wells of each 6-well plate. […] Then, the supernatant was recovered into a 1.5-mL Eppendorf tube and centrifuged at 8000 rpm for 5 minutes in a centrifuge. […]
The solution was removed, and each well was washed four times. […] TMB Microwell Peroxidase Substrate was added at 100 μL/well, followed by the absorbance measurement of the reaction solution in a plate reader at 450 nm.

[3] = peripheral blood lymphocytes under heat stress load, vs DMSO, p<0.05

## CC(C)=CCC/C(C)=C/COc1ccc2ccc(=O)oc2c1 [auraptene, 7-geranyloxycoumarin]
[1]; Table 2 summary, 40° C., inflammatory cytokines, e.g. IL-6 and CCL-2
  Pyrogenic factor: Decreased
[1]; peripheral blood lymphocytes sample A, 40° C., auraptene 10 μM, non-addition 10 ± 1.1
  IL-6 sample A: 5 ± 0.3 pg/mL
[1]; peripheral blood lymphocytes sample B, 40° C., auraptene 10 μM, non-addition 18 ± 0.8
  IL-6 sample B: 10 ± 0.1 pg/mL
[1]; [3]
  production of IL-6: significantly suppressed
[2]; peripheral blood lymphocytes sample A, 40° C., auraptene 10 μM, non-addition 61 ± 0.2
  CCL-2 sample A: 32 ± 1.7 pg/mL
[2]; [3]
  production of CCL-2: significantly suppressed
